According to patent US11008317B2, “Triazolopyridine inhibitors of myeloperoxidase and/or EPX” (priority 2016, dated 2021):

Assays:
myeloperoxidase [1] = target: T1, myeloperoxidase (Homo sapiens, UniProt P05164); assay: MPO Peroxidation Assay (Amplex Red Assay); type: biochemical; settings: potency range class
T1 sequence (P05164 49-745): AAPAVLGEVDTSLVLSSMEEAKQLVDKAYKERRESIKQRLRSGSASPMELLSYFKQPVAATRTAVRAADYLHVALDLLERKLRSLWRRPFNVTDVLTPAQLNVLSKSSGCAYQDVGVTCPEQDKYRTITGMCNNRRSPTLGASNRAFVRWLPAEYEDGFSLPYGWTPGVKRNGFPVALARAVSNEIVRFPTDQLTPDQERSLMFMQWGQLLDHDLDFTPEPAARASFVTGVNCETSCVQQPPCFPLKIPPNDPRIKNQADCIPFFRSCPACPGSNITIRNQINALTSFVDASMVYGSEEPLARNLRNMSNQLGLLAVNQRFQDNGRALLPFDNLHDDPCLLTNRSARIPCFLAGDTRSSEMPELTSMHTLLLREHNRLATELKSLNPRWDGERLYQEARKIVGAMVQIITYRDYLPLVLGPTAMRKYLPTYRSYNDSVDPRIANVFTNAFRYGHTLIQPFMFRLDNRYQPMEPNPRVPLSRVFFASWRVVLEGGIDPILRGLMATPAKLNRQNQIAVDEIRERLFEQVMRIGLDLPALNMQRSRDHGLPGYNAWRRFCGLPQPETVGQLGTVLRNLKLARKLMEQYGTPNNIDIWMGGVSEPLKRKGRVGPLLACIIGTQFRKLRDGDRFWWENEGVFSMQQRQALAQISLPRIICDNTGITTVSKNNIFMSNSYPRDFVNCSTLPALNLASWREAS

myeloperoxidase [2] = target: T1, myeloperoxidase; assay: MPO Chlorination Assay (APF Assay); type: biochemical; settings: potency range class
[3] = read-out: Amplex Red Assay IC50 value
[4] = Amplex Red Assay IC50 value (μM)

SMILES	IC50 (myeloperoxidase [1]; [3])	IC50 (myeloperoxidase [2]; read-out: APF Assay IC50 value)	IC50 (myeloperoxidase [1]; [4])	IC50 (myeloperoxidase [2]; APF Assay IC50 value (μM))
Nc1cc(C(CCNC2Cc3ccccc3C2)c2ccccc2)c2nn[nH]c2n1 (stereo not drawn) [Example 41, 7-{3-[(2,3-dihydro-1H-inden-2-yl)amino]-1-phenylpropyl}-3H-[1,2,3]triazolo[4,5-b]pyridin-5-amine]	0.101 to 0.999 µM	0.101 to 0.999 µM	–	–
Nc1cc(C(CCNC2(CO)CCC(c3ccccc3)CC2)c2ccccc2)c2nn[nH]c2n1 (stereo not drawn) [Example 116, {1-[(3-{5-amino-3H-[1,2,3]triazolo[4,5-b]pyridin-7-yl}-3-phenylpropyl)amino]-4-phenylcyclohexyl} methanol]	0.101 to 0.999 µM	0.001 to 0.1 µM	–	–
COc1cccc(C(CCN[C@H]2CC[C@H](c3ccccc3)CC2)c2cc(N)nc3[nH]nnc23)c1 (stereo partly drawn) [Example 158, 7-[1-(3-methoxyphenyl)-3-{[(trans)-4-phenylcyclohexyl]amino}propyl]-3H-[1,2,3]triazolo [4,5-b]pyridin-5-amine]	0.101 to 0.999 µM	0.001 to 0.1 µM	–	–
N#CC1(c2ccccc2)CCC(NCCC(c2ccccc2)c2cc(N)nc3[nH]nnc23)CC1 (stereo not drawn) [Example 177, 4-((3-(5-amino-3H-[1,2,3]triazolo[4,5-b]pyridin-7-yl)-3-phenylpropyl)amino)-1-phenylcyclohexane-1-carbonitrile]	0.101 to 0.999 µM	0.001 to 0.1 µM	–	–
COC1CC2(NCCC(c3ccccc3)c3cc(N)nc4[nH]nnc34)CCC1(c1ccccc1)CC2 (stereo not drawn) [Example 148, 7-[3-({3-methoxy-4-phenylbicyclo [2.2.2]octan-1-yl}amino)-1-phenylpropyl]-3H-[1,2,3]triazolo[4,5-b]pyridin-5-amine]	0.001 to 0.1 µM	0.001 to 0.1 µM	–	–
Nc1cc(C(CCN[C@H]2CC[C@H](c3ccc(=O)[nH]c3)CC2)c2ccccc2)c2nn[nH]c2n1 (stereo partly drawn) [Example 134, 5-[(trans)-4-[(3-{5-amino-3H-[1,2,3]triazolo[4,5-b]pyridin-7-yl}-3-phenylpropyl)amino]cyclohexyl]-1,2-dihydropyridin-2-one]	0.101 to 0.999 µM	0.101 to 0.999 µM	–	–
Nc1cc(C(CCN[C@H]2CC[C@H](c3ccccc3)CC2)c2ccccc2F)c2nn[nH]c2n1 (stereo partly drawn) [Example 157, 7-[1-(2-fluorophenyl)-3-{[(trans)-4-phenylcyclohexyl]amino}propyl]-3H-[1,2,3]triazolo [4,5-b]pyridin-5-amine]	0.101 to 0.999 µM	0.001 to 0.1 µM	–	–
Nc1cc(C(CCNC2CC(c3ccccc3)C2)c2ccccc2)c2nn[nH]c2n1 (single isomer, unassigned) [Example 80, 7-{1-phenyl-3-[(3-phenylcyclobutyl)amino]propyl}-3H-[1,2,3]triazolo[4,5-b] pyridin-5-amine]	0.101 to 0.999 µM	0.001 to 0.1 µM	–	–
Nc1cc(C(CCNC2(C(F)(F)F)CCC(c3ccccc3)CC2)c2ccccc2)c2nn[nH]c2n1 (stereo not drawn) [Example 151, 7-(1-phenyl-3-{[4-phenyl-1-(trifluoromethyl)cyclohexyl]amino}propyl)-3H-[1,2,3]triazolo[4,5-b] pyridin-5-amine]	1 to 10 µM	1 to 10 µM	–	–
Nc1cc(C(CCNC2(c3ccccc3)CCCCC2)c2ccccc2)c2nn[nH]c2n1 (stereo not drawn) [Example 128, 7-{1-phenyl-3-[(1-phenylcyclohexyl)amino]propyl}-3H-[1,2,3]triazolo [4,5-b]pyridin-5-amine]	–	–	1 to 10 µM	0.001 to 0.1 µM
Nc1cc(C(CCN[C@@H]2CCc3cc(F)ccc32)c2ccccc2)c2nn[nH]c2n1 (stereo partly drawn) [Example 61, 7-(3-{[(1R)-5-fluoro-2,3-dihydro-1H-inden-1-yl]amino}-1-phenylpropyl)-3H-[1,2,3]triazolo[4,5-b]pyridin-5-amine]	0.101 to 0.999 µM	0.101 to 0.999 µM	–	–
Nc1cc(C(CCNC2CCC(c3ccccc3)(c3ccccc3)CC2)c2ccccc2)c2nn[nH]c2n1 (stereo not drawn) [Example 127, 7-{3-[(4,4-diphenylcyclohexyl)amino]-1-phenylpropyl}-3H-[1,2,3]triazolo[4,5-b]pyridin-5-amine]	1 to 10 µM	0.001 to 0.1 µM	–	–
Nc1cc([C@H](CCCN2CC[C@H]3C[C@@H]2Cc2ccccc23)c2ccccc2)c2nn[nH]c2n1 [Example 219, 7-((R)-1-phenyl-4-((2R,6S)-1,4,5,6-tetrahydro-2,6-methanobenzo[d]azocin-3(2H)-yl)butyl)-3H-[1,2,3] triazolo[4,5-b] pyridin-5-amine]	–	–	0.101 to 0.999 µM	0.001 to 0.1 µM
CNC(=O)CN(CC[C@H](c1ccccc1)c1cc(N)nc2[nH]nnc12)C12CCC(c3ccccc3)(CC1)CC2 [Example 191, 2-{[(3R)-3-{5-amino-3H-[1,2,3]triazolo [4,5-b]pyridin-7-yl}-3-phenylpropyl]({4-phenylbicyclo[2.2.2]octan-1-yl})amino}-N-methylacetamide]	0.101 to 0.999 µM	0.001 to 0.1 µM	–	–
Nc1cc(C(CCN[C@@H]2C[C@H](c3ccccc3)Cc3ccccc32)c2ccccc2)c2nn[nH]c2n1 (stereo partly drawn) [Example 83, 7-(1-phenyl-3-{[(1R,3R)-3-phenyl-1,2,3,4-tetrahydronaphthalen-1-yl]amino}propyl)-3H-[1,2,3]triazolo [4,5-b]pyridin-5-amine]	1 to 10 µM	0.001 to 0.1 µM	–	–
Nc1cc(C(CCNC(c2ccccc2)C(F)(F)F)c2ccccc2)c2nn[nH]c2n1 (stereo not drawn) [Example 24, 7-{1-phenyl-3-[(2,2,2-trifluoro-1-phenylethyl)amino]propyl}-3H-[1,2,3]triazolo[4,5-b]pyridin-5-amine]	0.101 to 0.999 µM	1 to 10 µM	–	–

Second part, led by results:

IC50 (myeloperoxidase [1]; [3])	IC50 (myeloperoxidase [2]; read-out: APF Assay IC50 value)	SMILES	IC50 (myeloperoxidase [1]; [4])	IC50 (myeloperoxidase [2]; APF Assay IC50 value (μM))
1 to 10 µM	0.101 to 0.999 µM	Cn1c(C[C@H](c2ccccc2)c2cc(N)nc3[nH]nnc23)nc2ccc(-c3ccccc3)cc21 [Example 257, (R)-7-(2-(1-methyl-6-phenyl-1H-benzo[d]imidazol-2-yl)-1-phenylethyl)-3H-[1,2,3]triazolo[4,5-b] pyridin-5-amine]	–	–
0.101 to 0.999 µM	0.101 to 0.999 µM	CC(C)(NCCC(c1ccccc1)c1cc(N)nc2[nH]nnc12)c1ccccc1 (stereo not drawn) [Example 14, 7-{1-phenyl-3-[(2-phenylpropan-2-yl)amino]propyl}-3H-[1,2,3]triazolo[4,5-b]pyridin-5-amine]	–	–
0.101 to 0.999 µM	0.001 to 0.1 µM	Nc1cc(C(CCNC2c3ccccc3CC2c2ccccc2)c2ccccc2)c2nn[nH]c2n1 (stereo not drawn) [Example 56, 7-{1-phenyl-3-[(2-phenyl-2,3-dihydro-1H-inden-1-yl)amino]propyl}-3H-[1,2,3]triazolo[4,5-b] pyridin-5-amine]	–	–
0.101 to 0.999 µM	0.001 to 0.1 µM	NC(=O)c1cccc(-c2cccc3[nH]c(C[C@H](c4ccccc4)c4cc(N)nc5[nH]nnc45)nc23)c1 [Example 245, (R)-3-(2-(2-(5-amino-3H-[1,2,3]triazolo [4,5-b]pyridin-7-yl)-2-phenylethyl)-1H-benzo[d]imidazol-4-yl)benzamide]	–	–
0.101 to 0.999 µM	0.101 to 0.999 µM	Nc1cc([C@H](Cc2nc3ccc(Br)cc3s2)c2ccccc2)c2nn[nH]c2n1 [Example 263, (R)-7-(2-(6-bromobenzo [d]thiazol-2-yl)-1-phenylethyl)-3H-[1,2,3]triazolo[4,5-b] pyridin-5-amine]	–	–
1 to 10 µM	0.001 to 0.1 µM	N#Cc1cccc(-c2cccc3[nH]c(C[C@H](c4ccccc4)c4cc(N)nc5[nH]nnc45)nc23)c1 [Example 252, (R)-3-(2-(2-(5-amino-3H-[1,2,3]triazolo [4,5-b]pyridin-7-yl)-2-phenylethyl)-1H-benzo[d]imidazol-4-yl)benzonitrile]	–	–
0.101 to 0.999 µM	0.101 to 0.999 µM	Nc1cc([C@H](Cc2nc3cc(F)c(-c4ccccc4)cc3[nH]2)c2ccccc2)c2nn[nH]c2n1 [Example 259, (R)-7-(2-(5-fluoro-6-phenyl-1H-benzo[d]imidazol-2-yl)-1-phenylethyl)-3H-[1,2,3]triazolo[4,5-b] pyridin-5-amine]	–	–
1 to 10 µM	0.101 to 0.999 µM	Cn1c(C[C@H](c2ccccc2)c2cc(N)nc3[nH]nnc23)nc2cc(-c3ccccc3)ccc21 [Example 258, (R)-7-(2-(1-methyl-5-phenyl-1H-benzo[d]imidazol-2-yl)-1-phenylethyl)-3H-[1,2,3]triazolo[4,5-b] pyridin-5-amine]	–	–
0.101 to 0.999 µM	0.001 to 0.1 µM	CN(C)C(=O)c1cccc(-c2cccc3[nH]c(C[C@H](c4ccccc4)c4cc(N)nc5[nH]nnc45)nc23)c1 [Example 243, (R)-3-(2-(2-(5-amino-3H-[1,2,3]triazolo [4,5-b]pyridin-7-yl)-2-phenylethyl)-1H-benzo[d]imidazol-4-yl)-N,N-dimethylbenzamide]	–	–
0.101 to 0.999 µM	0.101 to 0.999 µM	Nc1cc(C(Cc2ccccc2F)c2ccccc2)c2nn[nH]c2n1 (single isomer, unassigned) [Example 9, 7-(2-(2-fluorophenyl)-1-phenylethyl)-3H-[1,2,3]triazolo[4,5-b]pyridin-5-amine]	–	–
0.001 to 0.1 µM	1 to 10 µM	Nc1cc(C(Cc2cccc(O)c2)c2ccccc2)c2nn[nH]c2n1 (stereo not drawn) [Example 230, 3-(2-(5-amino-3H-[1,2,3]triazolo[4,5-b]pyridin-7-yl)-2-phenylethyl)phenol]	–	–
